Laboratory results from US20070003585A1, “Topical skin treating compositions” (STIEFEL LABORATORIES, INC., priority 2005, published 2007).
Where two headings read alike, the source gives them in different places.

Legend:
[1] = Storage stability of composition containing 2.15% of benzoyl peroxide, […] of tazarotene, and […] of clindamycin (Example 8); format: physicochemical; details: Example 8 composition, initial 2.15%, 6 months
[2] = Storage stability of composition containing 2.02% of benzoyl peroxide and 0.099% of tazarotene (Example 17); format: physicochemical; details: Example 17 composition, initial 2.02%
Source text: (§1) The results are as follows:

[3] = Storage stability of composition containing 2.02% of benzoyl peroxide, […] of tazarotene, and […] of clindamycin (Example 9); format: physicochemical; details: Example 9 composition, initial 2.02%
[4] = Example 10 composition, initial 1.54%
[5] = Example 7 composition, initial 5.22%
[6] = Example 11 composition, initial […]
[7] = Storage stability of composition containing 5.18% of benzoyl peroxide and 0.099% of tazarotene (Example 18); format: physicochemical; details: Example 18 composition, initial 5.18%
Source text: as §1

[8] = Example 6 composition, initial 5.54%
[9] = Example 13 composition, initial […]
[10] = Example 12 composition, initial […]

Benzoyl Peroxide (BPO) (as % w/w) ([1]; 6° C.): 2.13 % w/w
Benzoyl Peroxide (BPO) (as % w/w) ([1]; 25° C.): 2.00 % w/w
Benzoyl Peroxide (BPO) (as % w/w) ([1]; 30° C.): 2.05 % w/w
Benzoyl Peroxide (BPO) (as % w/w) ([1]; 40° C.): 1.69 % w/w
Benzoyl peroxide (as % w/w) ([2]; 6 months, 6° C.): 2.07 % w/w
Benzoyl peroxide (as % w/w) ([2]; 6 months, 25° C.): 2.03 % w/w
Benzoyl peroxide (as % w/w) ([2]; 6 months, 30° C.): 2.05 % w/w
Benzoyl peroxide (as % w/w) ([2]; 6 months, 40° C.): 1.94 % w/w
Benzoyl peroxide (as % w/w) ([2]; 90 days, 6° C.): 2.09 % w/w
Benzoyl peroxide (as % w/w) ([2]; 90 days, 25° C.): 2.06 % w/w
Benzoyl peroxide (as % w/w) ([2]; 90 days, 30° C.): 2.07 % w/w
Benzoyl peroxide (as % w/w) ([2]; 90 days, 40° C.): 2.01 % w/w
Benzoyl Peroxide (BPO) (as % w/w) ([3]; 6 months, 6° C.): 2.10 % w/w
Benzoyl Peroxide (BPO) (as % w/w) ([3]; 6 months, 25° C.): 2.00 % w/w
Benzoyl Peroxide (BPO) (as % w/w) ([3]; 6 months, 30° C.): 1.94 % w/w
Benzoyl Peroxide (BPO) (as % w/w) ([3]; 6 months, 40° C.): 1.45 % w/w
Benzoyl Peroxide (BPO) (as % w/w) ([3]; 90 days, 6° C.): 2.02 % w/w
Benzoyl Peroxide (BPO) (as % w/w) ([3]; 90 days, 25° C.): 1.97 % w/w
Benzoyl Peroxide (BPO) (as % w/w) ([3]; 90 days, 30° C.): 1.97 % w/w
Benzoyl Peroxide (BPO) (as % w/w) ([3]; 90 days, 40° C.): 1.73 % w/w
Benzoyl Peroxide (BPO) (as % w/w) ([4]; 6 months, 6° C.): 1.50 % w/w
Benzoyl Peroxide (BPO) (as % w/w) ([4]; 6 months, 25° C.): 1.40 % w/w
Benzoyl Peroxide (BPO) (as % w/w) ([4]; 6 months, 30° C.): 1.40 % w/w
Benzoyl Peroxide (BPO) (as % w/w) ([4]; 6 months, 40° C.): 1.03 % w/w
Benzoyl Peroxide (BPO) (as % w/w) ([4]; 90 days, 6° C.): 1.50 % w/w
Benzoyl Peroxide (BPO) (as % w/w) ([4]; 90 days, 25° C.): 1.44 % w/w
Benzoyl Peroxide (BPO) (as % w/w) ([4]; 90 days, 30° C.): 1.42 % w/w
Benzoyl Peroxide (BPO) (as % w/w) ([4]; 90 days, 40° C.): 1.28 % w/w
Benzoyl Peroxide (BPO) (as % w/w) ([5]; 2 weeks, 6° C.): 5.22 % w/w
Benzoyl Peroxide (BPO) (as % w/w) ([5]; 2 weeks, 25° C.): 5.24 % w/w
Benzoyl Peroxide (BPO) (as % w/w) ([5]; 2 weeks, 30° C.): 5.23 % w/w
Benzoyl Peroxide (BPO) (as % w/w) ([5]; 2 weeks, 40° C.): 5.12 % w/w
Benzoyl Peroxide (BPO) (as % w/w) ([5]; 6 months, 6° C.): 5.16 % w/w
Benzoyl Peroxide (BPO) (as % w/w) ([5]; 6 months, 25° C.): 4.80 % w/w
Benzoyl Peroxide (BPO) (as % w/w) ([5]; 6 months, 30° C.): 4.91 % w/w
Benzoyl Peroxide (BPO) (as % w/w) ([5]; 6 months, 40° C.): 4.59 % w/w
Benzoyl Peroxide (BPO) (as % w/w) ([6]; 2 weeks, 6° C.): 0.99 % w/w
Benzoyl Peroxide (BPO) (as % w/w) ([6]; 2 weeks, 25° C.): 0.95 % w/w
Benzoyl Peroxide (BPO) (as % w/w) ([6]; 2 weeks, 40° C.): 0.94 % w/w
Benzoyl Peroxide (BPO) (as % w/w) ([6]; 6 months, 6° C.): 0.99 % w/w
Benzoyl Peroxide (BPO) (as % w/w) ([6]; 6 months, 25° C.): 0.91 % w/w
Benzoyl Peroxide (BPO) (as % w/w) ([6]; 6 months, 40° C.): 0.35 % w/w
Benzoyl Peroxide (BPO) (as % w/w) ([6]; 30 days, 6° C.): 0.98 % w/w
Benzoyl Peroxide (BPO) (as % w/w) ([6]; 30 days, 25° C.): 0.95 % w/w
Benzoyl Peroxide (BPO) (as % w/w) ([6]; 30 days, 40° C.): 0.90 % w/w
Benzoyl Peroxide (BPO) (as % w/w) ([6]; 90 days, 6° C.): 0.99 % w/w
Benzoyl Peroxide (BPO) (as % w/w) ([6]; 90 days, 25° C.): 0.93 % w/w
Benzoyl Peroxide (BPO) (as % w/w) ([6]; 90 days, 40° C.): 0.69 % w/w
Benzoyl peroxide (as % w/w) ([7]; 6 months, 6° C.): 5.2 % w/w
Benzoyl peroxide (as % w/w) ([7]; 6 months, 25° C.): 5.14 % w/w
Benzoyl peroxide (as % w/w) ([7]; 6 months, 30° C.): 5.02 % w/w
Benzoyl peroxide (as % w/w) ([7]; 6 months, 40° C.): 4.81 % w/w
Benzoyl peroxide (as % w/w) ([7]; 90 days, 6° C.): 5.25 % w/w
Benzoyl peroxide (as % w/w) ([7]; 90 days, 25° C.): 5.23 % w/w
Benzoyl peroxide (as % w/w) ([7]; 90 days, 30° C.): 5.30 % w/w
Benzoyl peroxide (as % w/w) ([7]; 90 days, 40° C.): 5.16 % w/w
Benzoyl Peroxide (BPO) (as % w/w) ([8]; 2 weeks, 25° C.): 5.43 % w/w
Benzoyl Peroxide (BPO) (as % w/w) ([8]; 2 weeks, 30° C.): 5.35 % w/w
Benzoyl Peroxide (BPO) (as % w/w) ([8]; 2 weeks, 40° C.): 5.34 % w/w
Benzoyl Peroxide (BPO) (as % w/w) ([8]; 90 days, 6° C.): 5.48 % w/w
Benzoyl Peroxide (BPO) (as % w/w) ([8]; 90 days, 25° C.): 5.34 % w/w
Benzoyl Peroxide (BPO) (as % w/w) ([8]; 90 days, 30° C.): 5.33 % w/w
Benzoyl Peroxide (BPO) (as % w/w) ([8]; 90 days, 40° C.): 5.19 % w/w
Benzoyl Peroxide (BPO) (as % w/w) ([9]; 2 weeks, 6° C.): 0.99 % w/w
Benzoyl Peroxide (BPO) (as % w/w) ([9]; 2 weeks, 25° C.): 0.98 % w/w
Benzoyl Peroxide (BPO) (as % w/w) ([9]; 2 weeks, 30° C.): 0.98 % w/w
Benzoyl Peroxide (BPO) (as % w/w) ([9]; 2 weeks, 40° C.): 0.96 % w/w
Benzoyl Peroxide (BPO) (as % w/w) ([9]; 6 months, 6° C.): 1.02 % w/w
Benzoyl Peroxide (BPO) (as % w/w) ([9]; 6 months, 25° C.): 0.96 % w/w
Benzoyl Peroxide (BPO) (as % w/w) ([9]; 6 months, 30° C.): 0.91 % w/w
Benzoyl Peroxide (BPO) (as % w/w) ([9]; 6 months, 40° C.): 0.40 % w/w
Benzoyl Peroxide (BPO) (as % w/w) ([9]; 90 days, 6° C.): 1.02 % w/w
Benzoyl Peroxide (BPO) (as % w/w) ([9]; 90 days, 25° C.): 0.99 % w/w
Benzoyl Peroxide (BPO) (as % w/w) ([9]; 90 days, 30° C.): 0.95 % w/w
Benzoyl Peroxide (BPO) (as % w/w) ([9]; 90 days, 40° C.): 0.73 % w/w
Benzoyl Peroxide (BPO) (as % w/w) ([10]; 2 weeks, 6° C.): 0.99 % w/w
Benzoyl Peroxide (BPO) (as % w/w) ([10]; 2 weeks, 25° C.): 0.97 % w/w
Benzoyl Peroxide (BPO) (as % w/w) ([10]; 2 weeks, 30° C.): 0.97 % w/w
Benzoyl Peroxide (BPO) (as % w/w) ([10]; 2 weeks, 40° C.): 0.94 % w/w
Benzoyl Peroxide (BPO) (as % w/w) ([10]; 6 months, 6° C.): 1.01 % w/w
Benzoyl Peroxide (BPO) (as % w/w) ([10]; 6 months, 25° C.): 0.95 % w/w
Benzoyl Peroxide (BPO) (as % w/w) ([10]; 6 months, 30° C.): 0.92 % w/w
Benzoyl Peroxide (BPO) (as % w/w) ([10]; 6 months, 40° C.): 0.40 % w/w
Benzoyl Peroxide (BPO) (as % w/w) ([10]; 90 days, 6° C.): 1.00 % w/w
Benzoyl Peroxide (BPO) (as % w/w) ([10]; 90 days, 25° C.): 0.94 % w/w
Benzoyl Peroxide (BPO) (as % w/w) ([10]; 90 days, 30° C.): 0.93 % w/w
Benzoyl Peroxide (BPO) (as % w/w) ([10]; 90 days, 40° C.): 0.73 % w/w
SMILES: O=C(OOC(=O)c1ccccc1)c1ccccc1 [Benzoyl Peroxide]
